Assay results reported in patent US8216614B2 (The Board of Regents of the University of Texas Systems, priority 2005, dated 2012).
Where two headings read alike, the source gives them in different places.

What was measured:
[1] = cited from earlier work; for bone mineral density: early postmenopausal women, Ruml et al., 1999
[2] = Metabolic study on preventing bone loss: serum calcium, parathyroid hormone, bone turnover markers; assay type: in vivo, human; conditions: for decline in markers of bone resorption (urinary hydroxyproline, urinary N-telopeptide, serum type 1 collagen C-telopeptide): change from placebo phase; for serum calcium / serum parathyroid hormone: last two days of two-week phase
Protocol: During the last two days of each two-week phase, serum and 24-hour urine samples were collected for assessment of calcium metabolism, alkali load, and bone turnover markers.
Markers of bone turnover. The effect of treatment on bone resorption (destruction) was evaluated from urinary hydroxyproline, urinary N-telopeptide, and serum type 1 collagen C-telopeptide. These bone-derived substances are called markers of bone resorption, since they are elevated in states of high bone destruction.

[3] = Metabolic study on prevention of kidney stone formation: alkali load, urinary stone risk factors, urinary saturation; assay type: in vivo, human; conditions: two-week phase, 24-hour urine; for urinary ammonium / net gastrointestinal absorption of alkali: change from placebo phase; for net gastrointestinal absorption of alkali: postmenopausal women, constant diet
From the text: A total of eighteen postmenopausal women without kidney stones underwent four phases of study chosen in random order while they were kept on a constant diet in a metabolic ward. […] During last two days of each phase, urine was collected in 24-hour pools for biochemistry and stone risk factors.
Provision of alkali load. […] If an alkali load is delivered, the net gastrointestinal absorption of alkali (calculated from urinary electrolytes) increases and urinary ammonium decreases (as a normal response of kidneys to alkali).

[4] = cited from earlier work

Row | SMILES | bone mineral density [1] | decline in markers of bone resorption (urinary hydroxyproline, urinary N-telopeptide, serum type 1 collagen C-telopeptide) [2] | serum calcium [2] | serum parathyroid hormone [2] | urinary ammonium [3] | net gastrointestinal absorption of alkali [3] | urinary calcium [3] | urinary citrate [3] | urinary oxalate [3] | urinary pH [3] | urinary saturation of calcium oxalate [3] | urinary citrate ([1]; calcium citrate supplementation, literature) | bone density ([4]; Pak et al., 2001) | calcium loss into urine ([4]; Sakhaee et al., 1991) | urinary citrate ([4]; literature)
1 | O=C([O-])[O-].[Ca+2] [calcium carbonate] | only partially effective |  |  |  |  |  |  |  |  |  |  |  |  |  | 
2 | O=C([O-])CC(O)(CC(=O)[O-])C(=O)[O-].O=C([O-])CC(O)(CC(=O)[O-])C(=O)[O-].[Ca+2].[Ca+2].[Ca+2] [calcium citrate] | prevent, though not increase | intermediate | increased slightly | significantly decreased | slightly but significantly decreased | marginally increased | increased | increased in the same direction | decreased significantly | increased marginally | increased marginally | modestly increases |  |  | 
3 | O=C([O-])CC(O)(CC(=O)[O-])C(=O)[O-].[K+].[K+].[K+] [potassium citrate] |  | least prominent | did not change | did not change | reduced | significantly and substantially increased | decreased | increased in the same direction | unaffected | significantly and substantially rose | declined |  | increase bone density | prevent calcium loss into urine | effective in increasing urinary citrate
